Assay [1] concerns Streptococcus sp. 'group A'. Put plainly: growth inhibition of control SK(-) GAS strain, dose response, counter-screen for streptokinase expression inhibitor project, luminescence, kanamycin, BacTiterGlo, confirmation (AID 1900). Type of assay: functional, organism-based. Background: The purpose of a counterscreen is to sort out artefacts and off-target activity.
For assay [2], the system named is BJ. The assay is described as follows: cytotoxicity toward BJ-TERT fibroblasts, dose response, cell-based, RAS-independent, luminescence (AID 1933). Type of assay: functional. Conditions: Homo sapiens.
Assay [3] relates to BJ. Put plainly: cells. Type of assay: functional, cell-based. Conditions: Homo sapiens.
Assay [4] concerns BJ. Put plainly: cytotoxicity toward BJ-TERT-LT-ST fibroblasts, dose response, cell-based, RAS-independent, luminescence (AID 1935).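 Also: BJ fibroblasts immortalized with TERT plus LT and ST oncogenes.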 Conditions: Homo sapiens. Type of assay: functional.
Assay [5] is described as follows: cytotoxicity toward DRD oncogenic fibroblasts, dose response, cell-based, non-viral oncogenic, luminescence (AID 1934). Type of assay: functional. Conditions: Homo sapiens.
A further assay deals with Streptococcus. The assay is described as follows: Group A Streptococcus viability loss, dose response, counter-screen for streptokinase expression inhibitor project, luminescence, BacTiterGlo (AID 1915).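 Also: potency for reduction of bacterial viability or growth.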 Type of assay: functional, organism-based.
Assay [6] deals with BJ. The assay is described as follows: cytotoxicity toward Ras-transformed BJeLR fibroblasts, dose response, cell-based, alamar blue fluorescence, cherrypicked samples (AID 2631).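 Also: confirmatory dose-response assay in RAS-dependent BJ fibroblasts engineered with TERT, LT and ST, with cytotoxicity read by fluorescence.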 Type of assay: functional. Conditions: Homo sapiens. A general note: Alamar Blue is a resazurin reagent that responds to reducing activity.
The target of assay [7] is T1, High affinity choline transporter 1 (Homo sapiens, UniProt Q9GZV3).
T1 sequence (Q9GZV3 whole entry): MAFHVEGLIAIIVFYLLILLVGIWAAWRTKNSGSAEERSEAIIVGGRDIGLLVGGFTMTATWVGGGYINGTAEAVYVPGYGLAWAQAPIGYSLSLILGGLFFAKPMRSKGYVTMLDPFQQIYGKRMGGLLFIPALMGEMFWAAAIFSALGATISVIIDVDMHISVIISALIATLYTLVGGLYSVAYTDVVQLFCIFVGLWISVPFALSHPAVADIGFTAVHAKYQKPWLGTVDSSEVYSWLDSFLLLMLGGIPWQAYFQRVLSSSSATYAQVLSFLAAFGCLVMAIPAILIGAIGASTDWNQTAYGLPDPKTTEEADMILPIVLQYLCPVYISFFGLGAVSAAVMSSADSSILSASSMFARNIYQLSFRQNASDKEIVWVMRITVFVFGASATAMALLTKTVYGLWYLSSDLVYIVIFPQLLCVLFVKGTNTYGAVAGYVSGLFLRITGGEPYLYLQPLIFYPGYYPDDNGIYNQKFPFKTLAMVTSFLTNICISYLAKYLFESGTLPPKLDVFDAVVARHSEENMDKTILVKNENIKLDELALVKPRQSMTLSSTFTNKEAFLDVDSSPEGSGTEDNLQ
Put plainly: CHT inhibitors, dose response, cell-based, 5-point CRC, membrane potential dye (AID 504840). Type of assay: functional.

Assay [8] addresses T2, Short transient receptor potential channel 4 (Mus musculus, UniProt Q9QUQ5).
T2 sequence (Q9QUQ5 whole entry): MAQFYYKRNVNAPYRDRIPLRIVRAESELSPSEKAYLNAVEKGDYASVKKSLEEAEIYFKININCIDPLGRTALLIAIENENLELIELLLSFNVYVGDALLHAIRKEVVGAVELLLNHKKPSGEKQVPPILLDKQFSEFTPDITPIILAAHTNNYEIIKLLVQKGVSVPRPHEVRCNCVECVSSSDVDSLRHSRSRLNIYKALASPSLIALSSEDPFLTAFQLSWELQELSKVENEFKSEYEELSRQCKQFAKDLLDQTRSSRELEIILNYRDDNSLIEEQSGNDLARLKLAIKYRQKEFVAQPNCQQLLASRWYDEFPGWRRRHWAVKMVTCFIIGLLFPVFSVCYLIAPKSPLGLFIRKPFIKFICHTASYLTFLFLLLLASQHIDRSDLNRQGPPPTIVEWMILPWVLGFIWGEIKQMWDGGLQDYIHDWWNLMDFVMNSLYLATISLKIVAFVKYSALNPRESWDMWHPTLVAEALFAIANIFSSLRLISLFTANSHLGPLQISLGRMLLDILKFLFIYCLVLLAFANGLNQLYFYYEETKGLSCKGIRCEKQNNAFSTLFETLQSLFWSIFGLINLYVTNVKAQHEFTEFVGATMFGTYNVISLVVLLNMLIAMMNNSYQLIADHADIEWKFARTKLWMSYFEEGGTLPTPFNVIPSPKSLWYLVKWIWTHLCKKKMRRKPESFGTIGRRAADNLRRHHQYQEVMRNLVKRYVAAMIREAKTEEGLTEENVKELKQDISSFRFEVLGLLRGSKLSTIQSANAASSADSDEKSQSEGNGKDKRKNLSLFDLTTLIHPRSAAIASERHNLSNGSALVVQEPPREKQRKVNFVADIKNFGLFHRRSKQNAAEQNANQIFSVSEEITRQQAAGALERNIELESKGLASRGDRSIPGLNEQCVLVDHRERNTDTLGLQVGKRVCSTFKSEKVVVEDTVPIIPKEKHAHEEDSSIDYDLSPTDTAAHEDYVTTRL
Put plainly: mouse TRPC4 channel activators, dose response, cell-based, HEK293 TRPC4/mu-opioid, Fluo-4 calcium (AID 434937). Type of assay: functional.

A short description of assay [9]: intracellular Trypanosoma cruzi inhibitors in host cells – cell-based, plate reader, cherry-pick samples, set 3, dose response (AID 651818).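 Also: compounds incubated with infected cells for about four days.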 Type of assay: functional.
The nature of assay [10]: P. falciparum Dd2 growth inhibitors, dose response, SYBR Green, cherry-picked samples (AID 1159567). Type of assay: functional, cell-based.
Assay [11] is described as follows: Luminescence Cell-Based Dose Retest to Confirm Inhibitors of Cancer Stem Cells. [Related pubchem assays (depositor defined):AID2717, AID2721]. Type of assay: functional. As to conditions: Homo sapiens.
Assay [12] in a line: cells. Type of assay: functional, cell-based.
The nature of assay [13]: cells. Type of assay: functional, cell-based. The source holds these as a separate data set.
Assay [14] is described as follows: Shn3 3'UTR reporter inhibitors, dose response, cell-based, Clone20 osteoblasts, firefly luciferase, cherry-picked (AID 624132).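 Also: firefly luciferase luminescence from reporter carrying the Shn3 3'UTR in osteoblasts.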 Type of assay: functional.
The nature of assay [15]: control 3'UTR Renilla luciferase suppression, dose response, counter-screen for Shn3 inhibitor project, cell-based, Clone20-Shn3RL, cherry-picked (AID 624133). Type of assay: functional.
Assay [16] can be described thus: inhibitors of firefly luciferase expression or activity, dose response, H4 neuroglioma cells, luminescence (AID 1990). Type of assay: functional, cell-based.
Assay [17] in a line: Luminescence Cell-Based Dose Response HTS to Identify Inhibitors of 5'UTR Stem-Loop Driven Prion Protein mRNA Translation in H4 Neuroglioblastoma Cells. [Related pubchem assays: 1827 (Project Summary), 1813 (Primary HTS)]. Type of assay: functional.
Assay [18] in a line: inhibitors of SNCA 5'UTR-driven reporter translation, confirmation, H4 neuroglioma cells, luminescence (AID 1988). Type of assay: functional, cell-based.
Assay [19] can be described thus: microbe, parasite or virus in culture. Type of assay: functional. Conditions: Mycobacterium tuberculosis.

Experimental findings from ChEMBL document CHEMBL1201862, “PubChem BioAssay data set” (2004) are described below.

Activity calls are given as the source filed them. Where only a bound is given, the exact number is not on record here.

Turning to `COc1cccc(N2C(N)=NC(N)=NC2(C)C)c1`, the EC50 in [1] is 0.355 µM (active); with BJ [2] it was > 150 µM (not active); in the assay on BJ [3], 5.99 µM (inconclusive); with BJ [4] it was > 150 µM (not active); in assay [5], 12.6 µM (active); in the assay with Streptococcus, 1.42 µM (active). Also, the EC50 in the assay on BJ [6] is > 133 µM (inactive).
Consider `CN1CCN(S(=O)(=O)c2cccc(C(=O)Nc3ccc(Br)cc3Br)c2)CC1`, for which, in assay [7], the IC50 is 12.6 µM (active).
`CN(C)C(CNC(=O)Cc1c(Cl)cccc1Cl)c1ccccc1` (stereo not drawn): the half-maximal effective concentration (EC50) in assay [8] is 0.376 µM (active).
Regarding `C[C@@H]1CN([C@@H](C)CO)C(=O)Cc2cc(NC(=O)C3CC3)ccc2O[C@@H]1CN(C)Cc1ccc(C(=O)Nc2ccccc2N)cc1`, the AC50 in assay [9] was 3.26 µM (active).
Same read-out and setting: to `COc1ccc(CN(C)C[C@H]2Oc3ccc(NS(=O)(=O)c4ccc(Cl)cc4)cc3CC(=O)N([C@H](C)CO)C[C@H]2C)cc1` belongs 4.65 µM (active).
Regarding `COCC(=O)N1CC2(C1)CN(Cc1cc(F)ccc1F)[C@H](CO)c1[nH]c3cc(OC)ccc3c12`, the AC50 in [10] is 13.6 µM (active).
On to `O=C(Nc1nc2ccc(S(=O)(=O)N3CCCCC3)cc2s1)c1cccnc1`, for which the IC50 in assay [7] is 13.2 µM (active).
Regarding `C[C@H](CO)N1C[C@H](C)[C@H](CN(C)Cc2ccc(-c3ccccc3)cc2)Oc2ccc(NC(=O)C3CCCCC3)cc2CC1=O`, the AC50 in [9] was 2.26 µM (active).
For the compound `COc1ccccc1/C=C1\SC(=S)N(CCC(=O)NCCCn2ccnc2)C1=O`, the EC50 in the assay with BJ [2] was > 150 µM (not active); with BJ [3] it was > 150 µM (not active); in the assay with BJ [4], > 75 µM (inconclusive); in assay [5], > 150 µM (not active); in the assay on BJ [6], > 133 µM (inactive). The AC50 in [11] was 6.05 µM (active).
Turning to `CC(C)c1cc(C(=O)NCCc2cccs2)c(N)s1`, the IC50 in “cells [12]” was > 29.9 µM (inactive). For the same compound, the EC50 in the assay “cells [13]” was > 29.9 µM (inactive).
As for `COc1ccc(-c2nc3ccc(C(=O)NCCCN4CCOCC4)cc3nc2-c2ccc(OC)cc2)cc1`, in [7], the IC50 was 13.2 µM (active).
`O=C(CCN1C(=O)/C(=C\c2cccc(Br)c2)SC1=S)NCCCN1CCOCC1`: the concentration for a half-maximal effect (EC50) in the assay with BJ [2] was 1.4 µM (inconclusive); in the assay on BJ [3], 93.6 µM (inconclusive); in the assay on BJ [4] it was > 150 µM (not active); in assay [5], 4.75 µM (active); in the assay with BJ [6], > 66.7 µM (inactive).
In the case of `Cc1cc(C)n2nc(SCc3cccc(S(=O)(=O)N(C)C)c3)nc2n1`, the figures for the AC50 in assay [14] and in assay [15] were 14 µM (active) and 8.55 µM (active), respectively.
As to `NC(=O)CC(NC(=O)Cc1ccc(Cl)cc1)c1ccc(NCCc2ccccc2F)c([N+](=O)[O-])c1` (stereo not drawn), the IC50 in “cells [12]” is > 29.9 µM (inactive). Moreover, in “cells [13]”, the EC50 was > 29.9 µM (inactive).
For the compound `O=C1OC(c2ccc([N+](=O)[O-])cc2)=N/C1=C/N1CC2CC(C1)c1cccc(=O)n1C2` (stereo not drawn), in [8], the EC50 is 10.6 µM (active).
Take `C[C@@H]1CN([C@H](C)CO)C(=O)Cc2cc(NC(=O)Nc3ccc(C(F)(F)F)cc3)ccc2O[C@H]1CN(C)CC1CCCCC1`: in assay [9], the half-maximal activity concentration (AC50) is 3.27 µM (active).
As for `C[C@H](CO)N1C[C@H](C)[C@H](CN(C)S(=O)(=O)c2ccc(Cl)cc2)Oc2ccc(NC(=O)Nc3ccc(C(F)(F)F)cc3)cc2CC1=O`, the AC50 in assay [9] is 3.91 µM (active).
With `CC1CN(c2ccc([N+](=O)[O-])c(NCCOc3ccc(Cl)cc3)c2)CC(C)N1` (stereo not drawn), the EC50 is > 120 µM (not active) in assay [16], 13.6 µM (active) in [17] and 9.59 µM (active) in assay [18]. In addition, the CC50 in assay [19] was 11.7 µM (active).
Take `C[C@H](CO)N1C[C@H](C)[C@H](CN(C)Cc2ccc(Oc3ccccc3)cc2)Oc2c(NC(=O)c3nc4ccccc4s3)cccc2C1=O`: in [10], the AC50 is 4.87 µM (active).
On to `Cc1ccc(S(=O)(=O)Nc2ccc3c(c2)C(=O)N([C@H](C)CO)C[C@H](C)[C@H](CN(C)S(=O)(=O)c2ccccc2)O3)cc1`, for which, in assay [9], the half-maximal activity concentration (AC50) was 13.3 µM (active).
As for `NN=C(S)NCCc1ccccc1`, in the assay “cells [12]”, the IC50 is > 29.9 µM (inactive). Moreover, the EC50 in the assay “cells [13]” was > 29.9 µM (inactive).
Consider `O=[N+]([O-])c1cc(C(F)(F)F)ccc1N1CCCNCC1`, for which the EC50 in assay [8] is 0.841 µM (active).
Regarding `CN(CC(=O)Nc1ccccc1Cl)C(=O)CCNC(=O)Nc1ccccc1`, the IC50 in “cells [12]” was > 29.9 µM (inactive). Further, the EC50 in the assay “cells [13]” is > 29.9 µM (inactive).
As for `CN1CCN(C(=O)c2cccn(Cc3c(Cl)cccc3Cl)c2=O)CC1`, the EC50 in assay [8] was 0.668 µM (active).
For the compound `O=C1NC(=S)S/C1=C\c1coc2ccccc2c1=O`, in assay [7], the IC50 is 14.5 µM (active).

Broadly, the EC50 is the concentration needed to bring the measured effect to its halfway point. The IC50 is the midpoint of a concentration-inhibition curve. In general, AC50 refers to the midpoint of the concentration-response curve, whichever way the signal moves.
